Test results: paper PMC9897032, “How Many Sirtuin Genes Are Out There? Evolution of Sirtuin Genes in Vertebrates With a Description of a New Family Member” (Molecular Biology and Evolution, 2023)

Biological target: T1, human SIRT3 (Homo sapiens, UniProt Q9NTG7)
T1 construct: recombinant enzyme supplied with Abcam fluorometric SIRT3 activity kit
T1 sequence (Q9NTG7 102-399): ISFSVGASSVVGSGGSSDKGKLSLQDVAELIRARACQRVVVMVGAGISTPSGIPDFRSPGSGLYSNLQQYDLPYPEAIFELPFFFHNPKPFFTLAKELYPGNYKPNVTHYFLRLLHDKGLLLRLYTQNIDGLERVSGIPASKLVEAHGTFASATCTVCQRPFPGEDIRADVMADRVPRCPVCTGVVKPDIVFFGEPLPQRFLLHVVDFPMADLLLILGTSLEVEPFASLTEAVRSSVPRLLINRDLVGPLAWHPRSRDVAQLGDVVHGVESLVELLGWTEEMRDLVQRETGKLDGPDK
Experiment: fluorometric deacetylation assay, acetylated substrate peptide (Abcam ab156067)
Type: biochemical
Conditions: activator; 37 °C; NAD+ dependent assay

- fold increase in activity at 100 μM: 1.6 ± 0.1 fold
Structure (SMILES): Oc1ccc(/C=C/c2cc(O)cc(O)c2)cc1 [REV, resveratrol]
